{"source": "patent US4677126A", "about": "“Oxa-fenchyl esters and amides of alpha-L-aspartyl-D-phenylglycine” (The Procter & Gamble Company, priority 1986, dated 1987)", "note": "Square brackets hold non-standard residues; d marks the D form. Peptide text beside a SMILES is read from it. Phg = N[C@H](C(=O)O)c1ccccc1"}
{"test": "not given", "details": "most carbonated beverages, pH about 2.5 to about 4.8; cited from earlier work"}
{"smiles": "COC(=O)[C@H](Cc1ccccc1)NC(=O)[C@@H](N)CC(=O)O", "note": "[aspartame, alpha-L-aspartyl-L-phenylalanine methyl ester] (H-Asp-Phe-OMe)", "hydrolytic stability in carbonated beverages": "hydrolytically unstable"}
{"test": "Sweetness intensity relative to sucrose, taste panel", "format": "in vivo, human", "details": "based on informal panel testing", "description": "(§1) The sweetness intensity of the esters and amides of the present invention relative to sucrose can be determined according to the following procedure:\n(§2) Male subjects are chosen at random from a group of about 20 persons who have previously been selected on the basis of proven tasting acuity, i.e., persons who could easily recognize the four basic tastes (sweet, sour, bitter and salty) and who are adept at quantifying their own physiological response numerically. The subjects are asked to taste and expectorate about 10 ml of a test sample (temperature of about 22° C.) having dissolved therein the ester or amide. […] Sweetness intensity of the test sample is recorded by the subject making a mark on the linear scale at a point they consider equal in sweetness among the standard samples; interpolation between standards is encouraged. After completion of the panel, a five point numeric scale is superimposed on the linear scales to obtain numerical data; data is averaged and recorded to the nearest 0.25 unit. Equivalent sucrose sweetness is determined by referring to graphs of (w/v) sucrose concentration in the standard samples versus a linear numeric scale.\n(§3) Sweetness intensity is calculated by dividing the concentration (w/v) of perceived sweetness by the concentration (w/v) of the ester or amide required to produce that sweetness. […]", "units": {"Sweetness (× Sucrose)": "× Sucrose"}}
{"smiles": "CC12CCC(O1)C(C)(C)C2OC(=O)[C@H](NC(=O)[C@@H](N)CC(=O)O)c1ccccc1", "note": "(stereo partly drawn) [Example 2, alpha-L-Aspartyl-D-phenylglycine-alpha-7-oxa-fenchyl ester]", "Sweetness (× Sucrose)": 1000}
{"test": "Sweetness intensity relative to sucrose, taste panel", "format": "in vivo, human", "details": "based on informal panel testing; isolated diastereomer", "description": "as §1, §2, §3"}
{"smiles": "CC12CCC(O1)C(C)(C)C2OC(=O)[C@H](NC(=O)[C@@H](N)CC(=O)O)c1ccccc1", "note": "(stereo partly drawn) [Example 2, alpha-L-Aspartyl-D-phenylglycine-alpha-7-oxa-fenchyl ester]", "Sweetness intensity": "approximately 1000 X"}
{"test": "not given", "details": "literature / prior patents; cited from earlier work"}
{"smiles": "C[C@@H](NC(=O)[C@@H](N)CC(=O)O)C(=O)NC1C(C)(C)S(=O)(=O)C1(C)C", "sweetness intensity, times that of sucrose": "1000 times that of sucrose"}
{"smiles": "C[C@@H](NC(=O)[C@@H](N)CC(=O)O)C(=O)NC1C(C)(C)SC1(C)C", "note": "[2,2,4,4-tetramethylthietan-3-yl]", "sweetness intensity, times that of sucrose": "2000 times that of sucrose"}
{"smiles": "CC1CCC(C)C1NC(=O)[C@@H](C)NC(=O)[C@@H](N)CC(=O)O", "note": "(stereo partly drawn) [2,5 dimethylcyclopentyl]", "sweetness intensity, times that of sucrose": "520 times that of sucrose"}
{"smiles": "CC1CCCC(C)C1NC(=O)[C@@H](C)NC(=O)[C@@H](N)CC(=O)O", "note": "(stereo partly drawn) [2,6-dimethylcyclohexyl]", "sweetness intensity, times that of sucrose": "600 times that of sucrose"}
{"smiles": "O=C1NS(=O)(=O)c2ccccc21", "note": "[Saccharin]", "sweetness intensity, times that of sucrose": "about 300 times that of sucrose", "taste quality": "lingering bitter aftertaste"}
{"smiles": "COC(=O)[C@H](Cc1ccccc1)NC(=O)[C@@H](N)CC(=O)O", "note": "[aspartame, alpha-L-aspartyl-L-phenylalanine methyl ester] (H-Asp-Phe-OMe)", "sweetness intensity, times that of sucrose": "150-200 times that of sucrose", "taste quality": "approaching that of sucrose"}
{"smiles": "C[C@@H](NC(=O)[C@@H](N)CC(=O)O)C(=O)NC(C1CC1)C1CC1", "note": "[dicyclopropylcarbinyl]", "sweetness intensity, times that of sucrose": "1200 times that of sucrose"}
{"smiles": "CCOC(=O)C(NC(=O)[C@@H](N)CC(=O)O)C(=O)OC1C2(C)CCC(C2)C1(C)C", "note": "(stereo partly drawn) [ethyl]", "sweetness intensity, times that of sucrose": "4200-5400 times that of sucrose"}
{"smiles": "C[C@@H](NC(=O)[C@@H](N)CC(=O)O)C(=O)NC1C2(C)CCC(C2)C1(C)C", "note": "(stereo partly drawn) [fenchyl]", "sweetness intensity, times that of sucrose": "320 times that of sucrose"}
{"smiles": "COC(=O)[C@@H](Cc1ccccc1)NC(=O)[C@@H](N)CC(=O)O", "note": "[methyl ester of L-aspartyl-D-phenylalanine] (H-Asp-[dF]-OMe)", "taste quality": "bitter"}
{"smiles": "COC(=O)[C@@H](NC(=O)[C@@H](N)CC(=O)O)c1ccccc1", "note": "[methyl ester of L-aspartyl-L-phenylglycine] (H-Asp-[Phg]-OMe)", "sweetness intensity, times that of sucrose": "100-1000 times that of sucrose", "taste quality": "quite sweet"}
{"smiles": "COC(=O)C(NC(=O)[C@@H](N)CC(=O)O)C(=O)OC1C2(C)CCC(C2)C1(C)C", "note": "(stereo partly drawn) [methyl]", "sweetness intensity, times that of sucrose": "22,200-33,200 times that of sucrose"}
